Source: US20020086278A1, “CHROMOGENIC MEDIA CONTAINING BLOOD OR HEMIN” (priority 1999, published 2002)
Where a name gives a salt, the structure may show the parent alone.

Assays:
[1] = test system: Aeromonas hydrophilia (aehy); assay: Example 3: colony color on chromogenic TSA II with 5% sheep blood (chromogen in medium); format: cell-based; conditions: for Colony Color: CO2, 21 h
[2] = test system: Entercoccus faecalis (enfa); assay: as above; format: cell-based; conditions: for Colony Color: 21 h
[3] = Precipitate of chromogen on pre-plated media; format: physicochemical; conditions: 50 μl DMSO solution on pre-plated media
Procedure: 50 μl of each chromogen solution was added to the surface of each of the following pre-plated media (one chromogen solution per plate):
The solution was dispersed using a spreader and allowed to dry 3-4 hours in a hood.

Escherichia coli 25922 = assay: Example 1: growth and colony color on plates surface-spread with chromogen; format: cell-based; conditions: E. coli 25922
[4] = test system: Gardnerella vaginalis 14019; assay: as above; format: cell-based; conditions: Summary of Table I; G. vaginalis 14014
E. coli 25922 = assay: Example 2: effect of incubation conditions on colony color formation; format: cell-based, Escherichia coli
N. gonorrhoeae 35201 = assay: Example 1: growth and colony color on plates surface-spread with chromogen; format: cell-based; conditions: Summary of Table I; N. gonorrhoeae 35201
[5] = test system: Streptococcus agalactiae (stag); assay: Example 3: colony color on chromogenic TSA II with 5% sheep blood (chromogen in medium); format: cell-based
S. milleri (stmi) = assay: as above; format: cell-based
E. faecium (enfu) = assay: as above; format: cell-based; conditions: for Colony Color: enfu 49032, 21 h
[6] = test system: Serratia marcescens (sema); assay: as above; format: cell-based
Candida albicans (caal) = assay: as above; format: cell-based; conditions: for Colony Color: caal 10231, 24 h
cakr 34135 = assay: as above; format: cell-based; conditions: CO2, 21 h
Group B Strep. 12386 = assay: Example 1: growth and colony color on plates surface-spread with chromogen; format: cell-based; conditions: for Color / Growth: Group B Strep 12386
[7] = test system: Staphylococcus Coag Neg (step); assay: Example 3: colony color on chromogenic TSA II with 5% sheep blood (chromogen in medium); format: cell-based; conditions: 21 h
Salmonella spp. (sasp) = format: cell-based
S. agalactiae 12386 = assay: Example 2: effect of incubation conditions on colony color formation; format: cell-based, Streptococcus agalactiae
[8] = test system: Staphylococcus aureus (stau); assay: Example 3: colony color on chromogenic TSA II with 5% sheep blood (chromogen in medium); format: cell-based
[9] = test system: Klebsiella pneumoniae (klpn); assay: as above; format: cell-based; conditions: CO2, 21 h
[10] = test system: Branhamella catarrhalis (brca); assay: as above; format: cell-based; conditions: brca 25238; CO2; 21 h
[11] = test system: Citrobacter freundii (cifr); assay: as above; format: cell-based; conditions: for Colony Color: CO2, 21 h
S pyogenes (stpy) = assay: as above; format: cell-based; conditions: for Colony Color: 21 h
[12] = test system: Branhamella catarrhalis 25238; assay: Example 1: growth and colony color on plates surface-spread with chromogen; format: cell-based
[13] = test system: Streptococcus pneumoniae 6303; assay: as above; format: cell-based
[14] = chromogenic TSA II with 5% Sheep Blood, 0.1 g/l
[15] = chromogenic TSA II with 5% Sheep Blood, 0.1 g/l, 1 strain tested
[16] = chromogenic TSA II with 5% Sheep Blood, 0.1 g/l, 2 strains tested
[17] = Summary of Table I, Group B Strep. 12386

O=P(O)(O)Oc1c[nH]c2cc(Cl)c(Br)cc12 [Mag-Phos, 5-Br-6-Cl-3-indolyl-phosphate, p-touidine salt]
Colony Color ([1]; aehy 7965): gp | Colony Color ([1]; aehy 7966): gp | Colony Color (Summary) ([1]; chromogenic TSA II with 5% Sheep Blood, 0.1 g/l, 3 strains tested): + | Colony Color (Summary) ([2]; chromogenic TSA II with 5% Sheep Blood, 0.1 g/l, 6 strains tested): + | Colony Color ([2]; enfa 597, CO2): lp | Colony Color ([2]; enfa 597, air): lp | Colony Color ([2]; enfa 10741, CO2): lp | Colony Color ([2]; enfa 12953, CO2): lp | Colony Color ([2]; enfa 14506, CO2): lp | Colony Color ([2]; enfa 29212, CO2): lp | Precipitate when spread / placed on the plated media [3]: somewhat insoluble | Color (Escherichia coli 25922; Choc II): purple | Substrates Producing Color (Escherichia coli 25922; Summary of Table I): Mag-phos | Color (Escherichia coli 25922; TSA II 5SB): purple | Color (Escherichia coli 25922; TSA Plain): purple | Substrates Producing Growth Inhibition [4]: Mag-phos | Colony Color (E. coli 25922): purple (m) | Substrates Producing Growth Inhibition (N. gonorrhoeae 35201): Mag-phos | Colony Color [5]: lp | Colony Color (Summary) [5]: + | Growth vs. control (S. milleri (stmi); [14]): no growth | Colony Color (S. milleri (stmi); stmi 6249, air, 21 h): 0 | Colony Color (Summary) (E. faecium (enfu); [15]): + | Colony Color (E. faecium (enfu); CO2): vlgp | Colony Color (E. faecium (enfu); air): lgp | Colony Color (Summary) [6, 15]: 0 | Colony Color ([6]; sema 13880, CO2, 21 h): 0 | Colony Color (Candida albicans (caal); CO2): 0 | Colony Color (Candida albicans (caal); air): 0 | Colony Color (Summary) (Candida albicans (caal); [16]): 0 | Colony Color (cakr 34135): lgp | Color (Group B Strep. 12386; Choc II): purple | Substrates Producing Color (Group B Strep. 12386; [17]): Mag-phos | Substrates Producing Growth Inhibition (Group B Strep. 12386; [17]): Slight inhib. w/ X- | Color (Group B Strep. 12386; TSA II 5SB): purple (a) | Growth (Group B Strep. 12386; TSA II 5SB): < | Color (Group B Strep. 12386; TSA Plain): purple | Growth (Group B Strep. 12386; TSA Plain): < | Colony Color ([7]; step 12228, CO2): 0 | Colony Color ([7]; step 12228, air): lp | Colony Color ([7]; step cdc1, CO2): lp | Colony Color ([7]; step cdc1, air): lp | Colony Color ([7]; step cdc2, CO2): 0 | Colony Color ([7]; step cdc2, air): 0 | Colony Color ([7]; step cdc3, CO2): 0 | Colony Color ([7]; step cdc3, air): 0 | Colony Color ([7]; step cdc4, CO2): lp | Colony Color ([7]; step cdc4, air): lp | Colony Color (Summary) (Salmonella spp. (sasp)): + | Colony Color (S. agalactiae 12386): purple (m) | Colony Color ([8]; stau 1006, CO2, 21 h): 0 | Colony Color ([8]; stau 1007, CO2, 21 h): 0 | Colony Color ([8]; stau 1008, CO2, 21 h): vlp | Colony Color ([8]; stau 1009, CO2, 21 h): vlp | Colony Color ([8]; stau 25923, CO2, 24 h): lp | Colony Color ([8]; stau 25923, air, 24 h): lp | Colony Color ([9]; klpn 13883): 0 | Colony Color ([9]; klpn 33606): 0 | Colony Color [10]: 0 | Colony Color (Summary) [11, 16]: 0 | Colony Color ([11]; cifr 8454): 0 | Colony Color ([11]; cifr 33128): 0 | Growth vs. control (S pyogenes (stpy); [14]): <grth | Colony Color (S pyogenes (stpy); stpy 1027, CO2): vlp | Colony Color (S pyogenes (stpy); stpy 1028, CO2): vlp | Colony Color (S pyogenes (stpy); stpy 1029, CO2): vlp | Colony Color (S pyogenes (stpy); stpy 1030, CO2): vlp | Colony Color (S pyogenes (stpy); stpy 19615, CO2): lp | Colony Color (S pyogenes (stpy); stpy 19615, air): lp | Colony Color (S pyogenes (stpy); stpy 49117, CO2): lp | Colony Color (S pyogenes (stpy); stpy 51339, CO2): lp | Substrates Producing Growth Inhibition ([12]; Summary of Table I, B. catarrhalis 25238): Mag-Phos | Growth ([12]; TSA II 5SB, B. catt 25258): << | Substrates Producing Growth Inhibition ([13]; Summary of Table I, S. pneumoniae 6303): Mag-phos | Growth ([13]; TSA II 5SB, S. pneu: 6303): <
